Reference: patent US6413539B1, “Hydrogel-forming, self-solvating absorbable polyester copolymers, and methods for use thereof” (Poly-Med, Inc., priority 1996, dated 2002)

Assay: Binding of acidic organic drugs to anion-exchanger
Type: physicochemical
Settings: sodium salt of drug; anion-exchanger of Example XIII
Protocol: The preparation of the anion-exchanger is achieved in two steps. […] In the second step, the practically non-ionic microparticles are incubated in hot dilute solution (^˜80° C.) of hexanediamine of known concentration in dioxane under argon for 2-4 hours. The concentration of the diamine in dioxane is determined by acidimetry. When the reaction practically ceases to take place, the aminated microparticles are separated by filtration, rinsed with dioxane, and dried under reduced pressure. The binding capacity of the anion-exchanger (aminated particles) is determined by (1) elemental analysis for nitrogen and (2) extent of binding to naproxin by measuring the extent of drug removed from a dilute solution using HPLC. The latter is confirmed by release of the immobilized naproxin with a dilute sodium hydroxide solution of known concentration.
Typical examples of acidic organic drugs that are available as sodium salt are ganciclovir, naproxin, and ibuprofen. In typical experiments, the aforementioned drugs are bound to the anion-exchanger of Example XIII following a similar scheme to that used in the same example describing the binding of naproxin.

Row | % Drug bound to anion-exchanger | SMILES
1 | 6% | Nc1nc(O)c2ncn(COC(CO)CO)c2n1 [Ganciclovir, ganciclovir]
2 | 8% | CC(C)Cc1ccc(C(C)C(=O)O)cc1 (stereo not drawn) [Ibuprofen, ibuprofen]
3 | 11% | COc1ccc2cc([C@H](C)C(=O)O)ccc2c1 [Naproxin, naproxin]
